We go through 7 compounds from patent US7148204B2, “Antisense modulation of bcl-x expression” (Isis Pharmaceuticala, Inc., priority 1998, dated 2006).

In the oligonucleotide strings, read from the 5' end, every base follows the letter of its sugar. An asterisk marks phosphorothioate; unmarked linkages are phosphodiester. Other units and linkages are bracketed, terminal groups are in braces. A string of capitals states the bases alone. e = 2'-O-(2-methoxyethyl) (MOE); [5mC] = 5-methylcytosine; d = 2'-deoxy (DNA)

In series [1] the test system is CEM-C7 cells. Kind of series: Viable cell counts of CEM cells (propidium iodide exclusion, flow cytometry). As to conditions: CEM cells; for viability by propidium iodide exclusion: 20 μM electroporation. The series is classed as cell-based, human. As for the experimental part:
CEM-C7 cells (Norman et al., 1978), a glucocortocoid sensitive clone of the human T-lymphoblastic cell line CEM, were cultured between 5×10^4 to 10^6 cells/ml in RPMI 1640 medium containing 10% heat-inactivated fetal bovine serum (FBS), streptomycin, penicillin G, 15 mM HEPES, 2 mM sodium pyruvate, at 37° C. in a humid, 5% CO2 incubator. Viable cell counts were performed by propidium iodide staining and flow cytometry.
CEM-C7 cells were electroporated with the indicated concentrations of oligonucleotides at 150 volts, 1,700 microFaraday (μF), and a resistance setting of 5 with a BTX electroporation apparatus (Genetronics, San Diego, Calif.) in 2-mm gap cuvettes containing 5×10^6 cells in 200 μl RPMI plus 20% FBS on ice. Cells were left on ice for 10 minutes, then plated in 5 ml complete media.
A general note: Flow cytometry measures light scatter and fluorescence of single cells or particles in a stream.

The test system of series [2] is bcl-xl protein. Kind of series: Immunoblot of bcl-xl protein in CEM cells. The series is classed as cell-based, human. The method, then:
Postnuclear detergent lysates were prepared as described by Reed et al. (Cancer Res., 1991, 51, 6529–6538), and the protein concentration was determined using a Bradford method protein assay kit (Bio-Rad, Hercules, Calif.). Protein (20 μg) was loaded in each lane, followed by electrophoresis on a 12% sodium dodecyl sulfate-polyacrylamide gel, followed by immunoblotting (Winston et al., 1993). The primary antibody was a 0.4 μg/ml dilution of the mouse monoclonal anti-human bcl-2 (clone 124, Dako, Carpinteria, Calif.), a 4.0 μg/ml dilution of the rabbit polyclonal anti-human bcl-xs/l (Dako), or a 0.3 μg/ml dilution of rabbit polyclonal anti-human Bax (N-20, Santa Cruz Biotechnology, Santa Cruz, Calif.). For development and STORM fluorescent imaging, the secondary antibody was peroxidase-conjugated sheep anti-mouse or donkey anti-rabbit (Amersham, Little Chalfort, UK). Chemiluminescence imaging and quantification were preformed using the STORM instrument and ImageQuant software (Molecular Dynamics, Sunnyvale, Calif.).
(In general: A western blot detects proteins with antibodies after separation by electrophoresis.)

For series [3], the system named is human bcl-x mRNA. The series is described as follows: Northern blot analysis of bcl-x mRNA levels in A549 cells. The series is classed as cell-based. As to conditions: 200 nM chimeric oligonucleotide. As for the experimental part: Eighteen hours after antisense treatment, cell monolayers were washed twice with cold PBS and lysed in 1 mL RNAZOL™ (TEL-TEST “B” Inc., Friendswood, Tex.). Total RNA was prepared following manufacturer's recommended protocols. Twenty micrograms of total RNA was fractionated by electrophoresis through 1.2% agarose gels containing 1.1% formaldehyde using a MOPS buffer system (AMRESCO, Inc. Solon, Ohio). RNA was transferred from the gel to HYBOND™-N+ nylon membranes (Amersham Pharmacia Biotech, Piscataway, N.J.) by overnight capillary transfer using a Northern/Southern Transfer buffer system (TEL-TEST “B” Inc., Friendswood, Tex.). RNA transfer was confirmed by UV visualization. Membranes were fixed by UV cross-linking using a STRATALINKER™ UV Crosslinker 2400 (Stratagene, Inc, La Jolla, Calif.).
Membranes were probed using QUICKHYB™ hybridization solution (Stratagene, La Jolla, Calif.) using manufacturer's recommendations for stringent conditions with an 822-base pair bcl-x specific probe prepared by PCR from bases 33–855 of human bcl-xl sequence (Boise et al., 1993, Cell 74:597–608; GenBank accession no. L20121). To normalize for variations in loading and transfer efficiency membranes were stripped and probed for glyceraldehyde-3-phosphate dehydrogenase (GAPDH) RNA (Clontech, Palo Alto, Calif.). Hybridized membranes were visualized and quantitated using a PHOSPHORIMAGER™ and IMAGEQUANT™ Software V3.3 (Molecular Dynamics, Sunnyvale, Calif.). Data was normalized to GAPDH levels in untreated controls.
Oligonucleotides were tested by Northern blot analysis as described in Example 14. Oligonucleotides were tested in A549 cells at a concentration of 400 nM. The results are Table 2:
Oligonucleotides were tested by Northern blot analysis as described in Example 14. Chimeric oligonucleotides were in A549 cells at a concentration of 200 nM. Where present, “N.D.” indicates “not determined”.

Series [4] deals with bcl-xs mRNA. Kind of series: RNase protection assay, bcl-xs mRNA in A549 cells. Particulars: RPA. It counts as cell-based, human. The arrangement: concentration or dose not given beside the values. The text has this: (§1) The ribonuclease (RNase) protection assay is a sensitive and specific method for quantitating expression levels (Zinn, et al., Cell, 1983, 34:865–79). The method is based on the hybridization of a target RNA to an in vitro transcribed ^32P-labeled anti-sense RNA probe from a DNA template. RNase treatment follows, resulting in degradation of single-stranded RNA and excess probe. The probe and target RNA are resolved by denaturing polyacrylamide gel electrophoresis with the “protected” probe visualized using autoradiography or beta imaging equipment. Template sets can be purchased (PharMingen Inc., San Diego Calif.) which contain a series of biologically relevant templates, each of distinct length and each representing a sequence in a distinct mRNA species. Each template set is capable of detecting up to 11 unique gene messages in a single reaction mix in addition to one or more housekeeping genes, L32 and GAPDH, which serve as internal controls. These template sets allow for multiple determinations to be made from a single sample. Multi-probe RPA can be performed on total RNA preparations derived by standard methods, without further purification of poly-A+ RNA.
(§2) Oligonucleotides were evaluated for their respective effects on bcl-xs and bcl-xl mRNA levels along with total bcl-x mRNA levels, using the RIBOQUANT™ RNase protection kit (Pharmingen, San Diego Calif.). All assays were performed according to manufacturer's protocols. Briefly, multi-probe DNA template sets were used to generate antisense RNA transcripts radiolabeled with […]. The template set used for apoptosis genes was the human hAPO-2 set. These radiolabeled probes were hybridized overnight with typically 10 μg of total cellular RNA. The reaction mixture was then digested with single-strand RNases to generate the protected fragments which were electrophoresed through a 5% acrylamide/urea gel. Protected bands were visualized and quantitated using a PhosphorImager (Molecular Dynamics, Sunnyvale Calif.).
(§3) Human bcl-x has two forms, a long form known as bcl-xl and a short form known as bcl-xs. […] The protein of bcl-xl is similar in size and structure to bcl-2, and could inhibit cell death upon growth factor withdrawal. The protein of bcl-xs is 63 amino acids shorter than bcl-xl. It could inhibit the bcl-2 function, thus promoting programmed cell death (apoptosis). Oligonucleotides were evaluated for their respective effects on bcl-xs and bcl-xl mRNA levels along with total bcl-x mRNA levels, using the RIBOQUANT™ RNase protection kit (Pharmingen, San Diego Calif.). All assays were performed according to manufacturer's protocols.

Series [5] has as its system bcl-xl mRNA. Kind of series: RNase protection assay, bcl-xl mRNA in A549 cells. As to conditions: RPA. The series is classed as cell-based, human.
Excerpt: as §1, §2, §3
(§4) These oligonucleotides were tested for their inhibitory effects on bcl-xl and bcl-xs mRNA levels in A549 cells, as detected by RPA analysis. Oligonucleotide concentration was 200 nM.

Series [6] has as its system total bcl-x mRNA. Kind of series: RNase protection assay, total bcl-x mRNA in A549 cells. As to conditions: RPA. The series is classed as cell-based, human. Further details: % CONTROL total bcl-x: concentration or dose not given beside the values.
Excerpt: as §1, §2, §3

For series [7], the system named is bcl-xs/bcl-xl mRNA ratio. Kind of series: RNase protection assay, bcl-xs/bcl-xl mRNA ratio in A549 cells. It counts as cell-based, human. As to conditions: A549 cells, RPA; for bcl-xs/bcl-xl (%): no oligo 17.56; for bcl-xs/bcl-xl* (change from the control ratio 17.56): no oligo = 1.
Excerpt: as §1, §2, §3, §4

The test system of series [8] is HUVEC. Kind of series: Apoptosis of HUVEC (hypodiploid cells by flow cytometry). Particulars: for increase in cellular DNA fragmentation over background: agent alone at low dose: staurosporine 2 nM, C6-ceramide 5 μM. It counts as cell-based, human. As for the experimental part: Human umbilical vein endothelial cells (HUVEC) were obtained from Clonetics (San Diego Calif.) and cultivated in endothelial growth medium (EGM) supplemented with 10% fetal bovine serum. Cells were used between passages 2 and 5 and were used at approximately 80% confluency. Cells were washed three times with pre-warmed (37° C.) Opti-MEM™. Oligonucleotides were premixed with 10 μg/ml Lipofectin™ in Opto-MEM™ at an oligonucleotide concentration of 50 nM ISIS 16009. Cells were incubated with oligonucleotide for 4 hours at 37° C. after which the medium was removed and replaced with standard growth medium. Treatment with C6-ceramide (Calbiochem, San Diego Calif.), staurosporine (Calbiochem), or z-VAD.fmk (Calbiochem), if any, was done 24 hours after oligonucleotide treatment. […] Apoptotic cells with fragmented DNA were identified by flow cytometry analysis of hypodiploid cells.

The subject of series [9] is bcl-x. The series is described as follows: SCID-human leukemia model, bcl-x expression in SEM-K2 xenografts. The series is classed as in vivo, human SEM-K2 cells in SCID-NOD mice. Particulars: 14-day s.c. infusion 100 μg/day (5 mg/kg/day), quantitative flow cytometry, n=3. As for the experimental part:
10^7 SEM-K2 cells in exponential phase of growth were injected subcutaneously into 8 SCID-NOD mice as a bolus (suspended in sterile saline). Engraftment and tumor formation occurred over a 2–3 week period. Micro Alzet pumps (Alza, Newark Del.) capable of delivering a continuous subcutaneous infusion over 14 days were used to deliver a dose of 100 μg per day (equivalent to 5 mg/kg) of ISIS 16009 and scrambled control ISIS 15691 into two groups of three animals, respectively. The remaining two animals received vehicle (sterile saline) only.
Mean reductions in expression of approximately 90% (n=3) compared to control (p<0.01) were measured using quantitative flow cytometry. This was compared to statistically insignificant (<20%, p<0.3) reductions in bcl-x expression by scrambled control oligonucleotide ISIS 15691 (n=3).
(Xenograft models place foreign cells or tissue in a host animal.)

The subject of series [10] is SEM-K2 xenograft cells. Kind of series: VP-16-induced apoptosis of xenograft cells (CPP32 DEVD-pNA cleavage, light scatter). The series is classed as in vivo, human SEM-K2 cells in SCID-NOD mice. As for the experimental part:
Xenografts were removed after sacrifice and mechanically dispersed into large volumes of medium. Leukocytes were purified by density gradient centrifugation and washed with medium before resuspending in 1 ml volumes at 1–5×10^6 cells/ml. Cells were incubated at 37° C. in 95% humidified air/5% CO2 for 2 hours prior to induction of apoptosis with 20 μg/ml VP-16 (Etoposide) over 24 hours. Each xenograft cell suspension treated with VP-16 was paired with a respective negative control. Apoptosis was assessed nonspecifically using quantification of light scatter changes; reduction in side scatter (due to chromatin condensation) and reduction in forward scatter (due to cell shrinkage) are early changes associated with apoptosis. Bimodal population distributions consisting of apoptotic and non-apoptotic cells could be measured respectively allowing estimation of an apoptotic index for treated and negative control. Fold increase in apoptosis was calculated from their ratio. More specific determination of apoptosis was achieved using the Apo-Alert Caspase-3 Colorimetric Assay Kit (Clontech, Palo Alto Calif.). This is a DEVD-specific caspase assay, a quantitative assay for the activity of caspase-3, a member of the caspase family thought to mediate apoptosis in most mammalian cell types. […] DEVD-dependent protease activity is assessed by detection of the free AFC or pNA cleaved from the substrates. […]

On to “5′-TCACATTGGCGCTTAGCCGT-3′ (chemistry not given here) [ISIS 16971, reference compound]”, for which the “viability by propidium iodide exclusion” value in series [1] (48 hours) is recorded as 70%; in [1] (72 hours), 82%. Moreover, in [1] (20 hours after electroporation), the “viable cell count at the highest concentration” value was “started to decrease”. Further, in [2], the “level of bcl-xl protein” value is reported as “no effect”.
On to “16012 (antisense e[5mC]*e[5mC]*eA*eG*e[5mC]*dC*dG*dC*dC*dG*dT*dT*dC*dT*dC*e[5mC]*eT*eG*eG*eA) [compound 16012]”, for which, in [3], the “% CONTROL (bcl-x mRNA levels)” value was 30% and the “% INHIB (bcl-x mRNA levels)” value came out at 70%. The “% CONTROL bcl-xs” value in series [4] was found to be 48%. The “% CONTROL bcl-xl” value in [5] is recorded as 63%. The “% CONTROL total bcl-x” value in series [6] came to 61%. Moreover, in [7], the “bcl-xs/bcl-xl (%)” value is 13.17% and the “bcl-xs/bcl-xl* (change from the control ratio 17.56)” value amounted to 0.75.
For the compound “16013 (antisense eT*eA*eG*eA*eG*dT*dT*dC*dC*dA*dC*dA*dA*dA*dA*eG*eT*eA*eT*e[5mC]) [compound 16013]”, in series [3], the “% CONTROL (bcl-x mRNA levels)” value is 85% and the “% INHIB (bcl-x mRNA levels)” value was 15%. The “% CONTROL bcl-xs” value in series [4] is recorded as 60%. Also, the “% CONTROL bcl-xl” value in series [5] is given as 83%. The “% CONTROL total bcl-x” value in [6] came to 82%. Further, in series [7], the “bcl-xs/bcl-xl (%)” value is given as 12.46% and the “bcl-xs/bcl-xl* (change from the control ratio 17.56)” value amounted to 0.71.
Take `CCCCCCCCCCCCC/C=C/[C@@H](O)[C@H](CO)NC(=O)CCCCC` [C6-ceramide]: in series [8], the “increase in cellular DNA fragmentation over background” value was “did not cause a significant increase”.
The same measure, in the same setting: the value for `CN[C@@H]1C[C@H]2O[C@@](C)([C@@H]1OC)n1c3ccccc3c3c4c(c5c6ccccc6n2c5c31)C(=O)NC4` [staurosporine] was “did not cause a significant increase”.
Regarding `COC(=O)CC[C@H](NC(=O)[C@H](CC(=O)OC)NC(=O)OCc1ccccc1)C(=O)N[C@H](C(=O)N[C@@H](CC(=O)OC)C(=O)CF)C(C)C` [z-DEVD.fmk], in series [8] (caspase inhibitor treatment), the “apoptosis caused by bcl-x inhibition, or bcl-x plus staurosporine or ceramide” value is given as “prevented”.
With “GACATCCCTTTCCCCCTCGG (chemistry not given here) [ISIS 15691]”, in [9], the “mean reduction in bcl-x expression” value is recorded as less than 20%. Further, the “apoptotic index (light scatter)” value in series [10] (20 μg/ml VP-16) is recorded as “not seen”. Also, the “change in VP-16-induced apoptosis” value in series [10] (20 μg/ml VP-16, n=3) is listed as “very little change”.
